ChEMBL document CHEMBL1201862, “PubChem BioAssay data set” (2004)
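Cells were grown in 96-well plates and exposed to each compound for 48 hours at five concentrations; endpoints were interpolated linearly between bracketing concentrations, or set to the highest concentration if not reached. GI50 = concentration required for 50% inhibition of growth.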 Calls of active or inactive are those of the source. Cut-off read from the data, not from the text of the source: active = GI50 up to about 1.1 µM and inactive = higher.

Columns and labels:
Test in all cases: NCI tumour cell line growth inhibition, 48 h
A549 = tested on: A549
NCI-H460 = tested on: NCI-H460
HCT-116 = tested on: HCT-116
SK-MEL-28 = tested on: SK-MEL-28
MCF7 = tested on: MCF7
MDA-N = tested on: MDA-N
K562 = tested on: K562
OVCAR-3 = tested on: OVCAR-3
CAKI-1 = tested on: CAKI-1
U-251 = tested on: U-251
CCRF-CEM = tested on: CCRF-CEM
MDA-MB-231 = tested on: MDA-MB-231
HCT-15 = tested on: HCT-15
NCI-H23 = tested on: NCI-H23
UACC-257 = tested on: UACC-257
786-0 = tested on: 786-0
SN12C = tested on: SN12C
Malme-3M = tested on: Malme-3M
EKVX = tested on: EKVX
NCI/ADR-RES = tested on: NCI/ADR-RES
PC-3 = tested on: PC-3
MOLT-4 = tested on: MOLT-4
OVCAR-8 = tested on: OVCAR-8
IGROV-1 = tested on: IGROV-1
HOP-92 = tested on: HOP-92
MDA-MB-435 = tested on: MDA-MB-435
NCI-H522 = tested on: NCI-H522
HT-29 = tested on: HT-29
SR = tested on: SR
SF-268 = tested on: SF-268
Hs-578T = tested on: Hs-578T
OVCAR-5 = tested on: OVCAR-5
SNB-19 = tested on: SNB-19
DU-145 = tested on: DU-145
COLO 205 = tested on: COLO 205
SK-MEL-5 = tested on: SK-MEL-5
UO-31 = tested on: UO-31
NCI-H226 = tested on: NCI-H226
ACHN = tested on: ACHN
OVCAR-4 = tested on: OVCAR-4
HOP-62 = tested on: HOP-62
SF-295 = tested on: SF-295
SNB-75 = tested on: SNB-75
A498 = tested on: A498
LOX IMVI = tested on: LOX IMVI
RXF 393 = tested on: RXF 393
KM12 = tested on: KM12
HCC 2998 = tested on: HCC 2998
HL-60 = tested on: HL-60
SW-620 = tested on: SW-620
RPMI-8226 = tested on: RPMI-8226
SF-539 = tested on: SF-539
BT-549 = tested on: BT-549
T47D = tested on: T47D
SK-MEL-2 = tested on: SK-MEL-2
UACC-62 = tested on: UACC-62
SK-OV-3 = tested on: SK-OV-3
TK-10 = tested on: TK-10
M14 = tested on: M14

SMILES: Cc1ccc2oc(=O)c(C(=O)Nc3nc(C45CC6CC(CC(C6)C4)C5)cs3)cc2c1
- GI50 (A549): > 100 µM (inactive)
- GI50 (NCI-H460): > 100 µM (inactive)
- GI50 (HCT-116): > 100 µM (inactive)
- GI50 (SK-MEL-28): > 100 µM (inactive)
- GI50 (MCF7): > 100 µM (inactive)
- GI50 (MDA-N): > 100 µM (inactive)
- GI50 (K562): > 100 µM (inactive)
- GI50 (OVCAR-3): > 100 µM (inactive)
- GI50 (CAKI-1): > 100 µM (inactive)
- GI50 (U-251): > 100 µM (inactive)
- GI50 (CCRF-CEM): > 100 µM (inactive)
- GI50 (MDA-MB-231): > 100 µM (inactive)
- GI50 (HCT-15): > 100 µM
- GI50 (NCI-H23): > 100 µM (inactive)
- GI50 (UACC-257): > 100 µM (inactive)
- GI50 (786-0): > 100 µM (inactive)
- GI50 (SN12C): > 100 µM (inactive)
- GI50 (Malme-3M): > 100 µM (inactive)
- GI50 (EKVX): > 100 µM (inactive)
- GI50 (NCI/ADR-RES): > 100 µM (inactive)
- GI50 (PC-3): > 100 µM (inactive)
- GI50 (MOLT-4): > 100 µM (inactive)
- GI50 (OVCAR-8): > 100 µM (inactive)
- GI50 (IGROV-1): > 100 µM (inactive)
- GI50 (HOP-92): > 100 µM (inactive)
- GI50 (MDA-MB-435): > 100 µM (inactive)
- GI50 (NCI-H522): > 100 µM (inactive)
- GI50 (HT-29): > 100 µM (inactive)
- GI50 (SR): > 100 µM (inactive)
- GI50 (SF-268): > 100 µM (inactive)
- GI50 (Hs-578T): > 100 µM (inactive)
- GI50 (OVCAR-5): > 100 µM (inactive)
- GI50 (SNB-19): > 100 µM (inactive)
- GI50 (DU-145): > 100 µM (inactive)
- GI50 (COLO 205): > 100 µM (inactive)
- GI50 (SK-MEL-5): > 100 µM (inactive)
- GI50 (UO-31): > 100 µM (inactive)
- GI50 (NCI-H226): > 100 µM (inactive)
- GI50 (ACHN): > 100 µM (inactive)
- GI50 (OVCAR-4): > 100 µM (inactive)
- GI50 (HOP-62): > 100 µM (inactive)
- GI50 (SF-295): > 100 µM (inactive)
- GI50 (SNB-75): > 100 µM (inactive)
- GI50 (A498): > 100 µM (inactive)
- GI50 (LOX IMVI): > 100 µM (inactive)
- GI50 (RXF 393): > 100 µM (inactive)
- GI50 (KM12): > 100 µM (inactive)
- GI50 (HCC 2998): > 100 µM (inactive)
- GI50 (HL-60): > 100 µM (inactive)
- GI50 (SW-620): > 100 µM (inactive)
- GI50 (RPMI-8226): > 100 µM (inactive)
- GI50 (SF-539): > 100 µM (inactive)
- GI50 (BT-549): > 100 µM (inactive)

SMILES: COC(=O)C1(CCCCl)CCCN1C(=O)OC(C)(C)C (stereo not drawn)
- GI50 (A549): > 100 µM (inactive)
- GI50 (NCI-H460): > 100 µM (inactive)
- GI50 (HCT-116): > 100 µM (inactive)
- GI50 (SK-MEL-28): > 100 µM (inactive)
- GI50 (MCF7): > 100 µM (inactive)
- GI50 (MDA-N): > 100 µM (inactive)
- GI50 (K562): 36.7 µM (inactive)
- GI50 (T47D): > 100 µM (inactive)
- GI50 (OVCAR-3): > 100 µM (inactive)
- GI50 (CAKI-1): > 100 µM (inactive)
- GI50 (U-251): > 100 µM (inactive)
- GI50 (CCRF-CEM): 37.5 µM (inactive)
- GI50 (SK-MEL-2): > 100 µM (inactive)
- GI50 (MDA-MB-231): > 100 µM (inactive)
- GI50 (UACC-62): > 100 µM (inactive)
- GI50 (HCT-15): > 100 µM
- GI50 (NCI-H23): > 100 µM (inactive)
- GI50 (UACC-257): > 100 µM (inactive)
- GI50 (786-0): > 100 µM (inactive)
- GI50 (SN12C): > 100 µM (inactive)
- GI50 (EKVX): > 100 µM (inactive)
- GI50 (NCI/ADR-RES): > 100 µM (inactive)
- GI50 (PC-3): > 100 µM (inactive)
- GI50 (IGROV-1): > 100 µM (inactive)
- GI50 (SK-OV-3): > 100 µM (inactive)
- GI50 (MDA-MB-435): > 100 µM (inactive)
- GI50 (HT-29): > 100 µM (inactive)
- GI50 (SR): 10.5 µM (inactive)
- GI50 (SF-268): > 100 µM (inactive)
- GI50 (OVCAR-5): > 100 µM (inactive)
- GI50 (SNB-19): > 100 µM (inactive)
- GI50 (DU-145): > 100 µM (inactive)
- GI50 (COLO 205): > 100 µM (inactive)
- GI50 (SK-MEL-5): > 100 µM (inactive)
- GI50 (UO-31): > 100 µM (inactive)
- GI50 (NCI-H226): 75.5 µM (inactive)
- GI50 (ACHN): > 100 µM (inactive)
- GI50 (OVCAR-4): > 100 µM (inactive)
- GI50 (HOP-62): > 100 µM (inactive)
- GI50 (SF-295): > 100 µM (inactive)
- GI50 (TK-10): > 100 µM (inactive)
- GI50 (SNB-75): > 100 µM (inactive)
- GI50 (LOX IMVI): > 100 µM (inactive)
- GI50 (RXF 393): > 100 µM (inactive)
- GI50 (KM12): > 100 µM (inactive)
- GI50 (HCC 2998): > 100 µM (inactive)
- GI50 (SW-620): > 100 µM (inactive)
- GI50 (BT-549): > 100 µM (inactive)

SMILES: CC(C)=CCc1cc(/C=C/C(=O)O)cc(CC=C(C)C)c1O [ARTEPILLIN]
- GI50 (A549): > 100 µM (inactive)
- GI50 (NCI-H460): > 100 µM (inactive)
- GI50 (HCT-116): > 100 µM (inactive)
- GI50 (MCF7): > 100 µM (inactive)
- GI50 (MDA-N): > 100 µM (inactive)
- GI50 (K562): 76 µM (inactive)
- GI50 (OVCAR-3): > 100 µM (inactive)
- GI50 (CAKI-1): > 100 µM (inactive)
- GI50 (U-251): > 100 µM (inactive)
- GI50 (CCRF-CEM): > 100 µM (inactive)
- GI50 (SK-MEL-2): > 100 µM (inactive)
- GI50 (MDA-MB-231): > 100 µM (inactive)
- GI50 (UACC-62): 66.8 µM (inactive)
- GI50 (HCT-15): 76 µM
- GI50 (NCI-H23): > 100 µM (inactive)
- GI50 (UACC-257): > 100 µM (inactive)
- GI50 (786-0): > 100 µM (inactive)
- GI50 (SN12C): > 100 µM (inactive)
- GI50 (EKVX): 81.7 µM (inactive)
- GI50 (NCI/ADR-RES): > 100 µM (inactive)
- GI50 (PC-3): > 100 µM (inactive)
- GI50 (MOLT-4): > 100 µM (inactive)
- GI50 (OVCAR-8): > 100 µM (inactive)
- GI50 (IGROV-1): 73.5 µM (inactive)
- GI50 (HOP-92): 19.7 µM (inactive)
- GI50 (SK-OV-3): > 100 µM (inactive)
- GI50 (MDA-MB-435): > 100 µM (inactive)
- GI50 (NCI-H522): 31.3 µM (inactive)
- GI50 (HT-29): 47.3 µM (inactive)
- GI50 (SR): > 100 µM (inactive)
- GI50 (SF-268): > 100 µM (inactive)
- GI50 (Hs-578T): > 100 µM (inactive)
- GI50 (OVCAR-5): > 100 µM (inactive)
- GI50 (SNB-19): > 100 µM (inactive)
- GI50 (DU-145): > 100 µM (inactive)
- GI50 (COLO 205): > 100 µM (inactive)
- GI50 (SK-MEL-5): > 100 µM (inactive)
- GI50 (UO-31): 87.5 µM (inactive)
- GI50 (ACHN): > 100 µM (inactive)
- GI50 (OVCAR-4): > 100 µM (inactive)
- GI50 (HOP-62): > 100 µM (inactive)
- GI50 (SF-295): > 100 µM (inactive)
- GI50 (TK-10): > 100 µM (inactive)
- GI50 (M14): > 100 µM (inactive)
- GI50 (A498): > 100 µM (inactive)
- GI50 (LOX IMVI): 43.7 µM (inactive)
- GI50 (KM12): 76 µM (inactive)
- GI50 (HL-60): > 100 µM (inactive)
- GI50 (SW-620): > 100 µM (inactive)
- GI50 (RPMI-8226): 76.6 µM (inactive)
- GI50 (SF-539): > 100 µM (inactive)
- GI50 (BT-549): > 100 µM (inactive)
